Reference: PubChem BioAssay (NCI)
Where “and” joins values, the source holds several entries; their conditions need not be identical. Equal entries are not always repeated.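 96-well plates; 48 h exposure; 5 concentrations. Endpoints by linear interpolation between flanking doses. Not reached: highest tested concentration assigned. Here, GI50 denotes the concentration required for 50% inhibition of growth. TGI denotes the concentration required for complete inhibition of growth.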

What was measured:
Test in all cases: NCI-60 cell line screen, 48 h
A498 renal = system: A498 renal
COLO 205 colon = system: COLO 205 colon
A549 NSCLC = system: A549 NSCLC
786-0 renal = system: 786-0 renal
NCI-H460 lung = system: NCI-H460 lung
UACC-257 melanoma = system: UACC-257 melanoma
SK-MEL-28 melanoma = system: SK-MEL-28 melanoma
HS 578T breast = system: HS 578T breast
NCI-H23 lung = system: NCI-H23 lung
CAKI-1 renal = system: CAKI-1 renal
HCT-116 colon = system: HCT-116 colon
T-47D breast = system: T-47D breast
HOP-92 NSCLC = system: HOP-92 NSCLC
SR leukemia = system: SR leukemia
OVCAR-5 ovarian = system: OVCAR-5 ovarian
IGROV1 ovarian = system: IGROV1 ovarian
SF-268 CNS = system: SF-268 CNS
SK-MEL-2 melanoma = system: SK-MEL-2 melanoma
MALME-3M melanoma = system: MALME-3M melanoma
KM12 colon = system: KM12 colon
NCI-H522 lung = system: NCI-H522 lung
M14 melanoma = system: M14 melanoma
K-562 leukemia = system: K-562 leukemia
CCRF-CEM leukemia = system: CCRF-CEM leukemia
SN12C renal = system: SN12C renal
U251 CNS = system: U251 CNS
SW-620 colon = system: SW-620 colon
OVCAR-8 ovarian = system: OVCAR-8 ovarian

SMILES: O=C1/C(=C\c2ccc([N+](=O)[O-])cc2)CS(=O)(=O)C/C1=C/c1ccc([N+](=O)[O-])cc1
- GI50 (A498 renal): 0.332 µM
- TGI (A498 renal): 0.966 µM and 3.37 µM
- GI50 (COLO 205 colon): 0.252 µM
- TGI (COLO 205 colon): 0.983 µM and 0.645 µM
- GI50 (A549 NSCLC): 0.35 µM
- TGI (A549 NSCLC): 10.8 µM
- GI50 (786-0 renal): 0.133 µM
- TGI (786-0 renal): 0.356 µM and 0.359 µM
- GI50 (NCI-H460 lung): 0.256 µM
- TGI (NCI-H460 lung): 2.48 µM
- GI50 (UACC-257 melanoma): 0.931 µM
- TGI (UACC-257 melanoma): 5.33 µM
- GI50 (SK-MEL-28 melanoma): 0.188 µM
- TGI (SK-MEL-28 melanoma): 0.444 µM and 3.59 µM
- GI50 (HS 578T breast): 0.447 µM
- TGI (HS 578T breast): 39.4 µM
- GI50 (NCI-H23 lung): 0.252 µM
- TGI (NCI-H23 lung): 0.651 µM and 5.12 µM
- GI50 (CAKI-1 renal): 0.121 µM
- GI50 (HCT-116 colon): 0.0821 µM
- TGI (HCT-116 colon): 0.227 µM and 1.28 µM
- GI50 (T-47D breast): 0.446 µM
- TGI (T-47D breast): 2.95 µM
- GI50 (HOP-92 NSCLC): 0.258 µM
- TGI (HOP-92 NSCLC): 0.656 µM and 6.43 µM
- GI50 (SR leukemia): 0.908 µM
- GI50 (OVCAR-5 ovarian): 0.126 µM
- GI50 (IGROV1 ovarian): 0.275 µM
- TGI (IGROV1 ovarian): 0.841 µM and 2.22 µM
- GI50 (SF-268 CNS): 0.359 µM
- TGI (SF-268 CNS): 10.5 µM
- GI50 (SK-MEL-2 melanoma): 0.366 µM
- TGI (SK-MEL-2 melanoma): 3.17 µM
- GI50 (MALME-3M melanoma): 0.32 µM
- TGI (MALME-3M melanoma): 2.12 µM
- GI50 (KM12 colon): 0.25 µM
- TGI (KM12 colon): 1.46 µM
- GI50 (NCI-H522 lung): 0.168 µM
- TGI (NCI-H522 lung): 0.398 µM and 1.29 µM
- GI50 (M14 melanoma): 0.131 µM
- TGI (M14 melanoma): 0.331 µM and 2.51 µM
- TGI (K-562 leukemia): > 100 µM
- GI50 (CCRF-CEM leukemia): 0.0128 µM
- TGI (CCRF-CEM leukemia): 0.133 µM
- GI50 (SN12C renal): 0.344 µM and 0.366 µM
- TGI (SN12C renal): 1.56 µM
- GI50 (U251 CNS): 0.0731 µM
- TGI (U251 CNS): 0.483 µM and 2 µM
- GI50 (SW-620 colon): 0.0889 µM
- TGI (SW-620 colon): 0.481 µM and 2.74 µM
- GI50 (OVCAR-8 ovarian): 0.0764 µM
- TGI (OVCAR-8 ovarian): 0.93 µM
